Source: paper PMC10987949, “Inhibition of HIV-1 release by ADAM metalloproteinase inhibitors” (Frontiers in Microbiology, 2024)
Entries after “also recorded” stand apart in the source; their conditions may differ.

Assays:
CD62L shedding = assay: Soluble CD62L ELISA, anti-CD3/PHA stimulated PBMC or CD4 T cells; type: cell-based, human; settings: for inhibition at 10 µM: Homo sapiens, 10 μM compound, stimulated cells; for inhibition at 10 µM / effect on CD62L shedding / soluble CD62L: ELISA; for effect on CD62L shedding / soluble CD62L: stimulated PBMC or CD4 T cells
Procedure, shortened: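 Healthy-donor PBMC stimulated with okt3 anti-CD3 (~0.2 μg/mL final) plus IL-2 (20 U/mL final) in presence of compound. Soluble CD62L in supernatants measured by ELISA; viability checked by AO/PI staining.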

recombinant ADAM10 = target: T1, recombinant ADAM10 (Homo sapiens, UniProt O14672); assay: Cleavage of fluorogenic CD62L peptide by recombinant ADAM10; type: biochemical; settings: 2 μM compound
T1 construct: purchased R&D systems, Inc
T1 sequence (O14672 214-748): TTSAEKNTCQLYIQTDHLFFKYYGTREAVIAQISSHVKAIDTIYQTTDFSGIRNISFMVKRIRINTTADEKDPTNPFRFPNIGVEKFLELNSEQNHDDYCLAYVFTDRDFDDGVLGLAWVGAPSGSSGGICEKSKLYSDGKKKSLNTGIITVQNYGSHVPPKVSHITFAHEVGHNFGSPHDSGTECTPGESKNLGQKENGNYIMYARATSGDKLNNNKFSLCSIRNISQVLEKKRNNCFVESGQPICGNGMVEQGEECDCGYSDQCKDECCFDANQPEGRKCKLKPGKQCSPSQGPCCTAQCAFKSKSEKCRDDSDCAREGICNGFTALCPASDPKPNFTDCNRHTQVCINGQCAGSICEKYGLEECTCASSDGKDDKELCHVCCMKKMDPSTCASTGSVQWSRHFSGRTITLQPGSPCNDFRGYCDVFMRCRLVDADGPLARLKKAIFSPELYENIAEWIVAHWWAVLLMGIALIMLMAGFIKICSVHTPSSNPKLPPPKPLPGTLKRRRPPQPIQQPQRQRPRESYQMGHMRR
Source text: A fluorescence based enzymatic assay was used to measure the cleavage of fluorogenic TNF-α and L-selectin (CD62L) peptides by either recombinant ADAMs or PBMC from healthy donors. The fluorogenic substrate, synthesized by Biomatik^3, was a Dabcyl (4-(4-dimethylaminophenylazo)benzoyl)- and Edans (5-[(2-aminoethyl)amino]naphthalene-1-sulfonic acid)- conjugated 12 amino acid peptide: Dabcyl-[…]-Edans that corresponds to the extracellular membrane proximal region of CD62L. The fluorescence of the Edans group is quenched by the Dabcyl group in the intact substrate and the cleavage of the CD62L substrate peptide results in a fluorescence emission at 490 nm. The cleavage of fluorogenic TNF-α peptide (ES003, R &D systems, Inc) was detected at emission of 405 nm. The cleavage was measured in a kinetic assay every 3 min for 4 h in black 96-well plates using a Synergy_h1 fluorescent plate reader (BioTek) with 340 nm excitation and 490 nm emission wavelengths. For cleavage using recombinant ADAMs, each enzymatic reaction contained 50–200 ng of recombinant ADAM17 or 10 (R&D systems, Inc) mixed with 5–10 μM fluorogenic TNFα peptide ES003 (R&D systems, Inc) or CD62L peptide with or without indicated inhibitors in 100 μL assay buffer of 25 mM Tris at pH 9.0, 2.5 μM ZnCl2, and 0.005% Brij-35 (w/v). For cell-based cleavage of the fluorescent CD62L-peptide substrate, 300,000 PBMC at 2×10^6/ml density were mixed with 10 μM fluorescent CD62L-peptide and various inhibitors in a black 96-well plate in 150 μL culture media (RPMI 1640, 10% FBS, 1% penicillin streptomycin). PBMC were stimulated with anti-CD3 antibody for 2–4 days as described above.
Supplemental Figure 3. Inhibition of ADAM10 enzymatic activity by 14mb. A) chemical structure of 3-Cl-phenylpyrrolidine tartrate diamide analogs 14m and 15. B)Inhibition of recombinant ADAM10 cleavage of a fluorogenic CD62L peptide substrate in the presence of titrating concentrations of 14mb. The concentration-dependent enzymatic activities are fitted with non-linear regression of normalized inhibition response model. C). Inhibition of ADAM10 enzymatic cleavage of fluorogenic CD62L peptide by various […]

HIV-1BAL = HIV-1BAL infection of CD8-depleted PBMC, FACS (intracellular p24, CD4, CD62L); type: cell-based; settings: for accumulation of infected CD4−/CD62L− T cells (loss of CD62L): HIV-1BAL infected cells; for effect on HIV-1BAL infection (intracellular p24): day 7 post infection, compounds at 100 μM, GI254023X at 250 μM
Source text: (§1) The use of healthy human peripheral blood mononuclear cells (PBMC) is approved by the Department of Transfusion Medicine at the Clinical Center of National Institutes of Health. The use of PBMC from HIV-1 infected individuals for the study was approved under protocol #02-I-0202 by the Institutional Review Board (IRB) of National Institutes of Health with written informed consent from all donors. Peripheral blood mononuclear cells (PBMCs) from anonymous healthy donors were isolated by Ficoll-Paque gradient, and cultured in RPMI 1640 supplemented with 10% FBS, 1%Penicillin/streptomycin, 1% HEPES buffer and 20 U/mL IL-2 (culture media); and stimulated with 0.2 μg/mL anti-CD3 antibody (okt3) for 2 days. CD8^+ T cells were depleted prior to infection using the Stemcell CD8 positive selection kit according to manufacturer’s instructions. CD8-depleted PBMCs were plated at 2×10^6 cells/ml in 48-well plates in 1 mL culture media with various inhibitors for 60 min prior to the addition of ~80 TCID50 HIV-1BAL or HIV-1LAI. Inhibitors were replenished during media change every 3 days. The infections were proceeded with or without inhibitors for 6 days or otherwise specified number of days and then analyzed by FACS staining using fluorescent labeled CD4-BV510, CD62L-APC and CD3-PEC7 antibodies (BD Biosciences). Cells were then washed and permeabilized with CytoFix/CytoPerm (BD Biosciences) solution before intracellular staining for HIV p24 antigen using FITC conjugated anti-p24 antibody clone KC57 (Beckman Coulter, catalog 6604665). All assays were performed with cell viabilities >80%. Replication competent HIV-1 viruses were obtained from the NIH AIDS Reagent Program^4, and expanded by infecting activated CD8-depleted PBMCs, and TCID50 was determined by p24 ELISA.

HIV-1LAI = HIV-1LAI infection of CD8-depleted PBMC; type: cell-based; settings: 100 μM
Source text: as §1, with “CD8-depleted PBMCs were plated at 2×10^6 cells/ml in 48-well plates in 1 mL culture media with various inhibitors for 60 min prior to the addition of ~80 TCID50 HIV-1BAL or HIV-1LAI. Inhibitors were replenished during media change every 3 days.” left out, “Cells were then washed and permeabilized with CytoFix/CytoPerm (BD Biosciences) solution before intracellular staining for HIV p24 antigen using FITC conjugated anti-p24 antibody clone KC57 (Beckman Coulter, catalog 6604665). All assays were performed with cell viabilities >80%.” left out

SMILES | inhibition at 10 µM (CD62L shedding) | effect on 3,4-dichloroisocouman enhanced CD62L shedding (CD62L shedding; stimulated PBMC) | effect on CD62L shedding / soluble CD62L (CD62L shedding) | inhibition of ADAM10 cleavage of CD62L substrate peptide (recombinant ADAM10) | inhibition when added on day 3 and 5 after initiation of infection (HIV-1BAL; 100μM, added day 0, 3, 5 post infection) | accumulation of infected CD4−/CD62L− T cells (loss of CD62L) (HIV-1BAL) | effect on HIV-1BAL infection (intracellular p24) (HIV-1BAL) | effect on X4 tropic HIV-1LAI infection (HIV-1LAI)
CNC(=O)[C@H](Cc1ccccc1)NC(=O)[C@H](CC(C)C)[C@H](CSc1cccs1)C(=O)NO [BB-94, Batimastat] | > 50% | blocked | suppressed CD62L shedding; also recorded: inhibited | indistinguishable with that of fluorogenic peptide CD62L-only without the enzyme; also recorded: completely suppressed | progressive reduction in its inhibition | reduced the accumulation | inhibited HIV-1BAL infections | inhibited the X4 tropic HIV-1LAI infections
CC1(C)SCCN(S(=O)(=O)c2ccc(Oc3ccncc3)cc2)[C@H]1C(=O)NO [prinomastat] | > 50% |  | suppressed CD62L shedding | completely suppressed |  | reduced the accumulation | inhibited HIV-1BAL infections | inhibited the X4 tropic HIV-1LAI infections
CNC(=O)[C@@H](NC(=O)[C@H](CCCc1ccccc1)[C@H](C)N(O)C=O)C(C)(C)C [GI254023X] | > 50% |  | suppressed CD62L shedding | completely suppressed |  | did not inhibit the accumulation | fail to significantly suppress the viral infections | 
